Measurements published in PubChem BioAssay (NCI).
Values joined by “and” are separate entries in the source; they are usually repeats but may differ in a detail not shown here. Identical values can stand only once.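 Method: 48-hour compound exposure of cells in 96-well plates, five concentrations, linear interpolation of endpoints. GI50 = concentration required for 50% inhibition of growth. Definition used: TGI = concentration required for complete inhibition of growth.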

Assays:
Experiment in all cases: inhibition of tumour cell growth, NCI panel, 48 h
HT29 colon = system: HT29 colon
NCI-H522 lung = system: NCI-H522 lung
HL-60(TB) leukemia = system: HL-60(TB) leukemia
U251 CNS = system: U251 CNS
CAKI-1 renal = system: CAKI-1 renal
HS 578T breast = system: HS 578T breast
A549 NSCLC = system: A549 NSCLC
SK-OV-3 ovarian = system: SK-OV-3 ovarian
HCC-2998 colon = system: HCC-2998 colon
DU-145 prostate = system: DU-145 prostate
CCRF-CEM leukemia = system: CCRF-CEM leukemia
RPMI-8226 leukemia = system: RPMI-8226 leukemia
OVCAR-5 ovarian = system: OVCAR-5 ovarian
HCT-15 colon = system: HCT-15 colon
SK-MEL-5 melanoma = system: SK-MEL-5 melanoma
SK-MEL-2 melanoma = system: SK-MEL-2 melanoma
COLO 205 colon = system: COLO 205 colon
NCI-H460 lung = system: NCI-H460 lung
MOLT-4 leukemia = system: MOLT-4 leukemia
A498 renal = system: A498 renal
MDA-MB-435 = system: MDA-MB-435
OVCAR-8 ovarian = system: OVCAR-8 ovarian
SF-295 CNS = system: SF-295 CNS
SF-268 CNS = system: SF-268 CNS
UACC-257 melanoma = system: UACC-257 melanoma
UO-31 renal = system: UO-31 renal
SF-539 CNS = system: SF-539 CNS
EKVX NSCLC = system: EKVX NSCLC
K-562 leukemia = system: K-562 leukemia
OVCAR-3 ovarian = system: OVCAR-3 ovarian
ACHN renal = system: ACHN renal
SW-620 colon = system: SW-620 colon
SK-MEL-28 melanoma = system: SK-MEL-28 melanoma
UACC-62 melanoma = system: UACC-62 melanoma
SNB-19 CNS = system: SNB-19 CNS
PC-3 prostate = system: PC-3 prostate
TK-10 renal = system: TK-10 renal
SN12C renal = system: SN12C renal
RXF 393 renal = system: RXF 393 renal
OVCAR-4 ovarian = system: OVCAR-4 ovarian
T-47D breast = system: T-47D breast
HCT-116 colon = system: HCT-116 colon
SR leukemia = system: SR leukemia
NCI/ADR-RES ovarian = system: NCI/ADR-RES ovarian
NCI-H226 lung = system: NCI-H226 lung
BT-549 breast = system: BT-549 breast
M14 melanoma = system: M14 melanoma
HOP-62 NSCLC = system: HOP-62 NSCLC
NCI-H23 lung = system: NCI-H23 lung
786-0 renal = system: 786-0 renal
MCF7 breast = system: MCF7 breast
MALME-3M melanoma = system: MALME-3M melanoma
SNB-75 CNS = system: SNB-75 CNS
KM12 colon = system: KM12 colon
LOX IMVI melanoma = system: LOX IMVI melanoma
MDA-MB-231 breast = system: MDA-MB-231 breast
HOP-92 NSCLC = system: HOP-92 NSCLC
IGROV1 ovarian = system: IGROV1 ovarian

COc1cc(O)c2c(c1)/C=C/C[C@H](O)[C@H](O)C(=O)/C=C\C[C@H](C)OC2=O
GI50 (HT29 colon): 0.0462 µM and 0.0821 µM | TGI (HT29 colon): 4.35 µM and 10.3 µM | GI50 (NCI-H522 lung): 0.357 µM and 2.05 µM | TGI (NCI-H522 lung): 4.01 µM and 12.7 µM | GI50 (HL-60(TB) leukemia): 0.218 µM and 0.205 µM | TGI (HL-60(TB) leukemia): 4.27 µM and 2.55 µM | GI50 (U251 CNS): 1.8 µM and 11.2 µM | TGI (U251 CNS): 6.99 µM and 23.5 µM | GI50 (CAKI-1 renal): 0.514 µM and 0.403 µM | TGI (CAKI-1 renal): 6.31 µM and 12.7 µM | GI50 (HS 578T breast): 3.91 µM and 2.72 µM | TGI (HS 578T breast): 28.5 µM and 13.1 µM | GI50 (A549 NSCLC): 4.77 µM and 34.8 µM | TGI (A549 NSCLC): 33.5 µM and > 100 µM | GI50 (SK-OV-3 ovarian): 5.73 µM and 17.9 µM | TGI (SK-OV-3 ovarian): 21.6 µM and 80.3 µM | GI50 (HCC-2998 colon): 2.46 µM and 9.46 µM | TGI (HCC-2998 colon): 7.09 µM and 23.3 µM | GI50 (DU-145 prostate): 2.09 µM and 5.28 µM | TGI (DU-145 prostate): 13.8 µM and 18.6 µM | GI50 (CCRF-CEM leukemia): 1.01 µM and 2.42 µM | TGI (CCRF-CEM leukemia): 11.4 µM and 9.13 µM | GI50 (RPMI-8226 leukemia): 0.815 µM and 1.59 µM | TGI (RPMI-8226 leukemia): 4.66 µM and 7.41 µM | GI50 (OVCAR-5 ovarian): 3.61 µM and 4.27 µM | TGI (OVCAR-5 ovarian): 10.3 µM and 22.6 µM | GI50 (HCT-15 colon): 0.618 µM and 2.17 µM | TGI (HCT-15 colon): 4.64 µM and 12.4 µM | GI50 (SK-MEL-5 melanoma): 0.331 µM and 2.69 µM | TGI (SK-MEL-5 melanoma): 4.53 µM and 14.4 µM | GI50 (SK-MEL-2 melanoma): 2.61 µM and 2.81 µM | TGI (SK-MEL-2 melanoma): 9.12 µM and 13.7 µM | GI50 (COLO 205 colon): 0.0614 µM and 0.194 µM | TGI (COLO 205 colon): 3.98 µM and 12 µM | GI50 (NCI-H460 lung): 2.29 µM and 3.34 µM | TGI (NCI-H460 lung): 33.5 µM and 17.2 µM | GI50 (MOLT-4 leukemia): 0.763 µM and 2.25 µM | TGI (MOLT-4 leukemia): 3.75 µM and 8 µM | GI50 (A498 renal): 4.93 µM and 4.48 µM | TGI (A498 renal): 32.3 µM and 67.7 µM | GI50 (MDA-MB-435): 0.157 µM and 0.171 µM | TGI (MDA-MB-435): 6.56 µM and 2.55 µM | GI50 (OVCAR-8 ovarian): 1.44 µM and 2.87 µM | TGI (OVCAR-8 ovarian): 7.22 µM and 14.6 µM | GI50 (SF-295 CNS): 4.32 µM and 18.6 µM | TGI (SF-295 CNS): 11.1 µM and 45 µM | GI50 (SF-268 CNS): 4.7 µM and 12.8 µM | TGI (SF-268 CNS): 33.5 µM and 55.7 µM | GI50 (UACC-257 melanoma): 0.0252 µM and 0.139 µM | TGI (UACC-257 melanoma): 1.74 µM and 1.27 µM | GI50 (UO-31 renal): 0.237 µM and 0.326 µM | TGI (UO-31 renal): 5.42 µM and 11.9 µM | GI50 (SF-539 CNS): 1.92 µM and 3.12 µM | TGI (SF-539 CNS): 6.89 µM and 15.3 µM | GI50 (EKVX NSCLC): 3.01 µM and 15.3 µM | TGI (EKVX NSCLC): 10.7 µM and 52.2 µM | GI50 (K-562 leukemia): 1.11 µM and 2.15 µM | TGI (K-562 leukemia): 27 µM and 12.3 µM | GI50 (OVCAR-3 ovarian): 0.991 µM and 2.88 µM | TGI (OVCAR-3 ovarian): 7.27 µM and 14.2 µM | GI50 (ACHN renal): 0.877 µM and 1.74 µM | TGI (ACHN renal): 5.61 µM and 14.4 µM | GI50 (SW-620 colon): 0.224 µM and 0.469 µM | TGI (SW-620 colon): 8.33 µM and 10.3 µM | GI50 (SK-MEL-28 melanoma): 0.0148 µM and 0.0458 µM | TGI (SK-MEL-28 melanoma): 3.52 µM and 1.04 µM | GI50 (UACC-62 melanoma): 0.0173 µM and 0.113 µM | TGI (UACC-62 melanoma): 2.89 µM and 9.52 µM | GI50 (SNB-19 CNS): 5.71 µM and 14.9 µM | TGI (SNB-19 CNS): 23.5 µM and 73.3 µM | GI50 (PC-3 prostate): 4.62 µM and 9.91 µM | TGI (PC-3 prostate): 15 µM and 28.7 µM | GI50 (TK-10 renal): 1.86 µM and 5.29 µM | TGI (TK-10 renal): 7.31 µM and 31.1 µM | GI50 (SN12C renal): 1.35 µM and 4.12 µM | TGI (SN12C renal): 9.17 µM and 23.7 µM | GI50 (RXF 393 renal): 1.07 µM and 2.01 µM | TGI (RXF 393 renal): 5.7 µM and 7.21 µM | GI50 (OVCAR-4 ovarian): 3.55 µM and 2.52 µM | TGI (OVCAR-4 ovarian): 33.5 µM and 23.3 µM | GI50 (T-47D breast): 1.18 µM and 2.66 µM | TGI (T-47D breast): 11.5 µM and 21.3 µM | GI50 (HCT-116 colon): 0.515 µM and 0.601 µM | TGI (HCT-116 colon): 3.66 µM and 10 µM | GI50 (SR leukemia): 0.358 µM and 0.671 µM | TGI (SR leukemia): 5.94 µM and 6.49 µM | GI50 (NCI/ADR-RES ovarian): 1.92 µM and 4.11 µM | TGI (NCI/ADR-RES ovarian): 9.55 µM and 31.5 µM | GI50 (NCI-H226 lung): 5.45 µM | TGI (NCI-H226 lung): 33.5 µM | TGI (BT-549 breast): 3.28 µM and 13.1 µM | GI50 (M14 melanoma): 0.022 µM and 0.05 µM | TGI (M14 melanoma): 1.42 µM and 10.3 µM | GI50 (HOP-62 NSCLC): 4.14 µM and 14.5 µM | TGI (HOP-62 NSCLC): 10.9 µM and 40.2 µM | GI50 (NCI-H23 lung): 0.559 µM | TGI (NCI-H23 lung): 4.56 µM | GI50 (786-0 renal): 3.88 µM and 3.81 µM | TGI (786-0 renal): 8.49 µM and 15.8 µM | GI50 (MCF7 breast): 0.891 µM and 2.89 µM | TGI (MCF7 breast): 4.13 µM and 10.9 µM | GI50 (MALME-3M melanoma): 0.00579 µM and 0.0157 µM | TGI (MALME-3M melanoma): 0.0926 µM and 0.0572 µM | GI50 (SNB-75 CNS): 5.72 µM and 3.57 µM | TGI (SNB-75 CNS): 17 µM and 31 µM | GI50 (KM12 colon): 1.54 µM and 5.53 µM | TGI (KM12 colon): 6.87 µM and 24.8 µM | GI50 (LOX IMVI melanoma): 0.477 µM and 1.04 µM | TGI (LOX IMVI melanoma): 3.59 µM and 4.44 µM | TGI (MDA-MB-231 breast): 7.26 µM and 27 µM | GI50 (HOP-92 NSCLC): 0.165 µM and 0.223 µM | TGI (HOP-92 NSCLC): 3.1 µM and 0.973 µM | GI50 (IGROV1 ovarian): 3.74 µM and 2.64 µM | TGI (IGROV1 ovarian): 16.9 µM and 20.9 µM
